In EP1534672B1, “RETINOL DERIVATIVES, THEIR USE IN THE TREATMENT OF CANCER AND FOR POTENTIATING THE EFFICACY OF OTHER CYTOTOXIC AGENTS” (priority 2002, dated 2004):
Values joined by “and” are separate entries in the source; they are usually repeats but may differ in a detail not shown here. Equal values may be shown once. Where a name gives a salt, the structure may show the parent alone. Read-outs that look alike come from different tables or passages of the source. Marks after values point to notes of the source that are not given here.

Test system: Human Breast Adenocarcinoma Cell Line MDA-MB-231
Assay: Drug cytotoxicity testing (viable cell count, trypan blue exclusion, cell growth inhibition)
Format: cell-based
Settings: for IC50: calculated from three concentrations, read-out: IC50 mol/L (a)
Protocol: MDA-MB-231 cells were propagated in MEM culture medium with 2 mM L-glutamine, 10% heat-inactivated fetal bovine serum (FBS) and antibiotics. DU 145 cells were cultured in MEM culture medium containing 2 mM L-glutamine, 1 mM sodium pyruvate, 10% FBS and antibiotics. SKOV-3 cells were cultured in McCoy's 5A culture medium, supplemented with 1,5 mM L-glutamine, 10% FBS and antibiotics. A549 cells were cultured in Ham's F-12 culture medium with 1 mM L-glutamine, 10% FBS and antibiotics. All media and supplements were purchased from Sigma-Aldrich (St.Louis, MO, USA). Cell propagation of all lines was carried out in Falcon™ 25 cm^2 cultivation flasks (Becton Dickinson Labware).
Drug cytotoxicity testing was carried out with using Falcon™ 96-well cultivation plates for adherent cells (Becton Dickinson Labware). These plates were seeded by cells either at 12 × 10^3 MDA-MB-231 cells/well, or at 12 × 10^3 DU 145 cells/well, or at 14 × 10^3 SKOV-3 cells/well, or at 10 × 10^3 A549 cells/well in a volume of 200 µL/well.
The cell cultures in cultivation plates were allowed to adhere for 24 hour of incubation. On day 1 after cell seeding, 2 µL solutions of the drugs to be tested in medium with 5% FBS was added to the cultures. In the control cultures, 2 µL of medium with 5% FBS was added as solvent control. The cells were incubated for 2 consecutive days. At the end of the incubation period adherent cells were detached by trypsinization and the number of viable cells was counted using trypan blue exclusion test and a hemocytometer. All data were derived from an average of three determinations each in six replicates. The results were expressed as mean cell number ± SE and the differences between control and test series evaluated by means of Student's t-test. The drug cytotoxicity was evaluated based on the extent of cell growth inhibition. The cell growth inhibition of the tested drugs was calculated as follows: Cell growth inhibition,% = (Control-TestSeries)/(Control) × 100 [formula]
In the case of comparative evaluation of cytotoxicity of the inventive compounds themselves and the formulation related to consecutive dilutions of their initial solutions before adding to the cultures, 2 µL solutions of the drugs to be tested in medium with 5% FBS, in normal saline and in saline with 2,3 mM CaCl2 were added to the cultures. In control cultures, 2 µL of medium with 5% FBS, normal saline and saline with 2,3 mM CaCl2 were added as solvent controls (negative controls). […] Therefore an average of negative controls was calculated. […] Therefore an average of positive controls was calculated (for each antibiotic).

[1] = cytotoxic drug alone 10^-7 mol/L, average of positive controls in medium with 5% FBS, normal saline and saline with 2,3 mM CaCl2, hydrochloride
[2] = cytotoxic drug alone 10^-8 mol/L, average of positive controls in medium with 5% FBS, normal saline and saline with 2,3 mM CaCl2, hydrochloride
[3] = cytotoxic drug alone 10^-9 mol/L, average of positive controls in medium with 5% FBS, normal saline and saline with 2,3 mM CaCl2, hydrochloride
[4] = Homo sapiens, MDA-MB-231, 48 h, compound alone, final concentration 10^-7 mol/L, working solutions in MEM with 5% FBS, two days, read-out: cell growth inhibition
[5] = Homo sapiens, MDA-MB-231, 48 h, compound alone, final concentration 10^-8 mol/L, working solutions in MEM with 5% FBS, two days, read-out: cell growth inhibition
[6] = Homo sapiens, MDA-MB-231, 48 h, compound alone, final concentration 10^-9 mol/L, working solutions in MEM with 5% FBS, two days, read-out: cell growth inhibition
[7] = compound alone, final concentration 10^-7 mol/L, working solutions in MEM with 5% FBS, two days
[8] = compound alone, final concentration 10^-8 mol/L, working solutions in MEM with 5% FBS, two days
[9] = compound alone, final concentration 10^-9 mol/L, working solutions in MEM with 5% FBS, two days

Compound | inhibition at 0.1 µM [4] [%] | inhibition at 0.01 µM [5] [%] | inhibition at 0.001 µM [6] [%] | number of viable cells [7] | number of viable cells [8] | number of viable cells [9] | other results
COc1cccc2c1C(=O)c1c(O)c3c(c(O)c1C2=O)C[C@@](O)(C(=O)CO)C[C@@H]3O[C@H]1C[C@H](N)[C@H](O)[C@H](C)O1 [Doxorubicin, (8S,10S)-10-[(3-amino-2,3,6-trideoxy-α-L-lyxo-hexopyranosyl)oxy]-8-glycolyl-7,8,9,10-tetrahydro-6,8,11-trihydroxy-1-methoxy-5,12-naphtacenedione hydrochloride, reference compound] | – | – | – | – | – | – | IC50 (Homo sapiens, MDA-MB-231, as concentration of cytotoxic drug, alone or in formulation at molar ratio 1:6, medium with 5% FBS): 76 nM; inhibition at 0.1 µM (Homo sapiens, MDA-MB-231, cytotoxic drug 10^-7 mol/L (100 nM), alone or in formulation at molar ratio 1:6, working solutions in medium with 5% FBS, read-out: Cell Growth Inhibition, %): 53.6%; inhibition at 0.01 µM (Homo sapiens, MDA-MB-231, cytotoxic drug 10^-8 mol/L, alone or in formulation at molar ratio 1:6, working solutions in medium with 5% FBS, read-out: Cell Growth Inhibition, %): 26.4%; inhibition at 0.001 µM (Homo sapiens, MDA-MB-231, cytotoxic drug 10^-9 mol/L, alone or in formulation at molar ratio 1:6, working solutions in medium with 5% FBS, read-out: Cell Growth Inhibition, %): 13.8%; inhibition at 0.1 µM (Homo sapiens, MDA-MB-231, cytotoxic drug alone 10^-7 mol/L, average of positive controls in medium with 5% FBS, normal saline and saline with 2,3 mM CaCl2, read-out: Cell Growth Inhibition, %): 55.4%; inhibition at 0.01 µM (Homo sapiens, MDA-MB-231, cytotoxic drug alone 10^-8 mol/L, average of positive controls in medium with 5% FBS, normal saline and saline with 2,3 mM CaCl2, read-out: Cell Growth Inhibition, %): 29.4%; inhibition at 0.001 µM (Homo sapiens, MDA-MB-231, cytotoxic drug alone 10^-9 mol/L, average of positive controls in medium with 5% FBS, normal saline and saline with 2,3 mM CaCl2, read-out: Cell Growth Inhibition, %): 19.4%; IC50 (Homo sapiens, MDA-MB-231, cytotoxic drug alone, average of positive controls): 62 nM; Tumor Cell Number, × 10^3 (cytotoxic drug 10^-7 mol/L (100 nM), alone or in formulation at molar ratio 1:6, working solutions in medium with 5% FBS, hydrochloride): 26.2 ± 1.29 × 10^3; Cell Growth Inhibition, % (cytotoxic drug 10^-7 mol/L (100 nM), alone or in formulation at molar ratio 1:6, working solutions in medium with 5% FBS, hydrochloride, 0.1 µM): 53.0* %; Tumor Cell Number, × 10^3 (cytotoxic drug 10^-7 mol/L (100 nM), alone or in formulation at molar ratio 1:6, working solutions in medium with 5% FBS, listed as doxorubicin, hydrochloride): 23.6 ± 1.02 × 10^3; Tumor Cell Number, × 10^3 (cytotoxic drug 10^-8 mol/L, alone or in formulation at molar ratio 1:6, working solutions in medium with 5% FBS): 41.0 ± 1.50 × 10^3; Tumor Cell Number, × 10^3 (cytotoxic drug 10^-9 mol/L, alone or in formulation at molar ratio 1:6, working solutions in medium with 5% FBS): 48.0 ± 1.85 × 10^3; Cell Growth Inhibition, % [1]: 55.3* %; Tumor Cell Number, × 10^3 [1]: 25.5±0.71 × 10^3 and 25.2±1.56 × 10^3; Cell Growth Inhibition, % [2]: 27.3 * %; Tumor Cell Number, × 10^3 [2]: 40.4±1.65 × 10^3 and 41.0±0.96 × 10^3; Cell Growth Inhibition, % [3]: 19.1* %; Tumor Cell Number, × 10^3 [3]: 46.1±2.07 × 10^3 and 45.6±1.38 × 10^3; IC50 (cytotoxic drug alone, average of positive controls, hydrochloride): 64 nM
CCOC(=O)[C@H](CS(=O)(=O)O)NC(=O)/C=C(C)/C=C/C=C(C)/C=C/C1=C(C)CCCC1(C)C [compound I-1b, N-(all-trans-retlnoyl)-L-cysteic acid ethyl ester] | 46.7 | 44.2 | 39.2 | 30.5 ± 1.82 × 10^3 | 31.9 ± 2.16 × 10^3 | 34.8 ± 2.41 × 10^3 | –
CC1=C(/C=C/C(C)=C/C=C/C(C)=C/C(=O)N[C@@H](CS(=O)(=O)O)C(=O)OC(C)C)C(C)(C)CCC1 [compound I-1c, N-(all-trans-retinoyl)-Lwcysteic acid isopropyl ester] | – | 46.9 | 40.6 | 28.9 ± 1.52 × 10^3 | 30.4 ± 1.79 × 10^3 | 34.0 ± 2.13 × 10^3 | –
CCCOC(=O)[C@H](CS(=O)(=O)O)NC(=O)/C=C(C)/C=C/C=C(C)/C=C/C1=C(C)CCCC1(C)C [compound I-1d, N-(all-trans-retinoyl)-L-cysteic acid propyl ester] | 54.8 | 50.7 | 45.2 | 24.1 ± 1.46 × 10^3 | 26.3 ± 1.67 × 10^3 | 29.2 ± 1.89 × 10^3 | –
CCCCOC(=O)[C@H](CS(=O)(=O)O)NC(=O)/C=C(C)/C=C/C=C(C)/C=C/C1=C(C)CCCC1(C)C [compound I-1e, N-(all-trans-retinoyl)-L-cysteic acid butyl ester] | 53.5 | 49.2 | 44.7 | 24.8 ± 1.34 × 10^3 | 27.1 ± 1.75 × 10^3 | 29.5 ± 2.18 × 10^3 | –
